Test results from ChEMBL document CHEMBL5537181 (J Med Chem, 2024).

Assay: Antagonist activity at human alpha9N152G mutant alpha10 nAChR expressed in acetylcholine-induced Xenopus laevis oocytes assessed as inhibition of acetylcholine-induced current at 1:1 ratio of protein by two electrode voltage-clamp assay
Format: cell-based
Conditions: Oocyte

With `CC[C@H](C)[C@H](NC(=O)[C@H](CCCNC(=N)N)NC(=O)[C@H](CCCNC(=N)N)NC(=O)[C@H](Cc1ccc(O)cc1)NC(=O)[C@H](CCCNC(=N)N)NC(=O)[C@H](CCCNC(=N)N)NC(=O)[C@H](CCCNC(=N)N)NC(=O)[C@H](CCCNC(=N)N)NC(=O)[C@H](CC(=O)O)NC(=O)[C@H](Cc1ccc(O)cc1)NC(=O)[C@@H]1CCCN1C(=O)[C@H](CO)NC(=O)[C@H](CCCNC(=N)N)NC(=O)[C@H](Cc1ccc(O)cc1)NC(=O)[C@H](CCCNC(=N)N)NC(=O)CN)C(=O)N[C@H](C(=O)N[C@@H](CC(=O)O)C(N)=O)[C@@H](C)O` the IC50 was 3.6 nM.
